Measurements from paper PMC4793717 (Pharmacology, 2013).
Entries after “also recorded” stand apart in the source; their conditions may differ. Read-outs that look alike come from different tables or passages of the source. One block for each molecule: values may come before it.

Key:
TrkB [1] = target: T1, TrkB (Mus musculus, UniProt P15209); assay: TrkB activation in mouse brain after oral gavage; type: in vivo, C57BL/6J mice; conditions: 5 mg/kg oral gavage, brain collected at 2 h
dentate gyrus [2] = assay: Neurogenesis assay via BrdU incorporation in the dentate gyrus; type: in vivo, C57BL/6J mice; conditions: 5 mg/kg orally for 21 days
[3] = In vivo pharmacokinetic study of 7,8-DHF, plasma and brain by HPLC-MS/MS; design: species or system CD-1 mice; conditions: for half-life: T1/2, plasma
mice [4] = assay: Forced swim test; type: in vivo, C57BL/6J mice; conditions: 5 mg/kg orally once a day for 21 days
TrkB receptor [5] = target: T2, TrkB receptor (Rattus norvegicus, UniProt Q63604); assay: TrkB activation in primary cortical neurons; type: cell-based; conditions: for TrkB activation in primary neurons (p-TrkB Y816): 500 nmol/l, 15 min, primary cortical neurons
mice [6] = assay: Tail suspension test; type: in vivo, C57BL/6J mice; conditions: 5 mg/kg orally once a day for 21 days
TrkB [7] = target: T1, TrkB; assay: Immunohistochemistry staining of p-TrkB in the dentate gyrus; type: in vivo, mice; conditions: 5 mg/kg orally for 21 days
Caco-2 = assay: In vitro Caco-2 permeability assay; type: in vitro ADME; conditions: test conc. 10 μmol/l, 2 h
[8] = In vitro Caco-2 permeability assay; type: in vitro ADME; conditions: human, Caco-2
TrkB receptor [9] = conditions: cited from earlier work
mice [10] = conditions: cited from earlier work
Akt = assay: p-Akt ELISA of mouse brain samples; type: in vivo, C57BL/6J mice; conditions: for p-Akt versus control in entacapone-treated and tolcapone-treated groups (ELISA): COMT inhibitor 30 mg/kg pretreatment, flavonoid 5 mg/kg
TrkB receptor [11] = target: T2, TrkB receptor; conditions: cited from earlier work
dentate gyrus [12] = conditions: chronic treatment; cited from earlier work
TrkB [13] = target: T1, TrkB; conditions: oral administration, at 2 or 4 h; cited from earlier work
[14] = chronic treatment, dose of 5 mg/kg; cited from earlier work
[15] = male, CD-1, mouse, plasma, po, 50 mg/kg, mice, after 7,8-DHF p.o. 50 mg/kg
[16] = mice, after 7,8-DHF p.o. 50 mg/kg
[17] = male, CD-1, mouse, plasma, po, 50 mg/kg

T2 sequence (Q63604 32-821): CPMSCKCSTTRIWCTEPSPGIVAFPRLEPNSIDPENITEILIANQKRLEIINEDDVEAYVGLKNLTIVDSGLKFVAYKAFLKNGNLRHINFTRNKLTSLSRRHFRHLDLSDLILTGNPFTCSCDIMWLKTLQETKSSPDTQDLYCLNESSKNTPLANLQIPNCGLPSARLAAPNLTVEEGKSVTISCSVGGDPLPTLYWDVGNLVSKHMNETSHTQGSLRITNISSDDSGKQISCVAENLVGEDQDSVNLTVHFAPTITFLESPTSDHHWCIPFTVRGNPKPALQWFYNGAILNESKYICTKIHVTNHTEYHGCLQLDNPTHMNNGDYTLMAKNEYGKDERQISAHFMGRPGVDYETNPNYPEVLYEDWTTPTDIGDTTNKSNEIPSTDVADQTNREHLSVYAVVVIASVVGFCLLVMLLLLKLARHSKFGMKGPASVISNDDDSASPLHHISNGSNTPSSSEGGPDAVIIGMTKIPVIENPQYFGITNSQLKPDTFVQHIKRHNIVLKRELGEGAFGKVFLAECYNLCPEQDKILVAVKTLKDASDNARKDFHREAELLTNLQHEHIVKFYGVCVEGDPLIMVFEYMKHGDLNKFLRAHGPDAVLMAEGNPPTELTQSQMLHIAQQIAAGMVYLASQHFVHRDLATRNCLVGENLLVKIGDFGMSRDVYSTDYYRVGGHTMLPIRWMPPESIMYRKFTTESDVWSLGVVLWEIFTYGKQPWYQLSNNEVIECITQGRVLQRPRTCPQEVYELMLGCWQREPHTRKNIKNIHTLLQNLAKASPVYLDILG
T1 sequence (P15209 32-821): as the sequence (Q63604 32-821) above, with M3T, T9S, T10A, I32V, K63R, G84S, T153M, I185L, T394S, N770S counted along it

p-TrkB 706 immunoblotting in mouse brain (TrkB [1]): elicited the strongest p-TrkB signal
Molecule: COc1ccc2c(=O)cc(-c3ccccc3)oc2c1OC [D024]
TrkB activation in mouse brain (p-TrkB Y816) (TrkB [1]): elicited TrkB activation (p-TrkB Y816), but the effect was not as strong as that of the other two compounds

half-life [3, 15]: 1.53 h | earliest detection in plasma [3, 16]: 3 min | plasma concentration at 6 h [3, 16]: below the quantitative limit | detection in mouse brain at any time ([3]; mice, after 7,8-DHF p.o. 50 mg/kg, 50 mg/kg): below the limit of quantification
Molecule: COc1ccc2c(=O)cc(-c3ccccc3)oc2c1O [H428, 7-methoxy-8-hydroxyflavone]
neurogenesis (BrdU-positive cells in the dentate gyrus) (dentate gyrus [2]): significantly promoted neurogenesis compared to vehicle | immobility in FST (mice [4]): strongest effect | TrkB activation in primary neurons (p-TrkB Y816) (TrkB receptor [5]): activates the TrkB receptor in primary neurons | immobility in TST (mice [6]): substantially decreased the immobility | TrkB activation in mouse brain (p-TrkB Y816) (TrkB [1]): clearly activated the TrkB receptor compared to vehicle control | TrkB phosphorylation in the dentate gyrus (immunohistochemistry) (TrkB [7]): strongly provoked TrkB phosphorylation in the dentate gyrus

Comment (Caco-2 permeability) (Caco-2): high permeability control | Papp A→B at 2 h, 10 μmol/l [8]: 52.6 ×10⁻⁶ cm/s | Papp B→A at 2 h, 10 μmol/l [8]: 18.3 ×10⁻⁶ cm/s | efflux ratio at 2 h, 10 μmol/l [8]: 0.3
Molecule: CC(=O)CC(c1ccccc1)c1c(O)c2ccccc2oc1=O (centres unmarked) [Warfarin, reference compound]

Molecule: O=c1cc(-c2ccccc2)oc2ccc(O)c(O)c12 [5,6-dihydroxyflavone]
TrkB agonistic effect (TrkB receptor [9]): but not 5,6-dihydroxyflavone or 5,7-dihydroxyflavone possess a TrkB agonistic effect

Molecule: O=c1cc(-c2ccccc2)oc2cc(O)c(O)cc12 [6,7-dihydroxyflavone]
TrkB agonistic effect (TrkB receptor [9]): possess a TrkB agonistic effect

Comment (Caco-2 permeability) (Caco-2): poor recovery A to B | Papp A→B at 2 h, 10 μmol/l [8]: 1.5 ×10⁻⁶ cm/s | Papp B→A at 2 h, 10 μmol/l [8]: 1.7 ×10⁻⁶ cm/s | efflux ratio at 2 h, 10 μmol/l [8]: 1.2 | brain concentration of parent compound relative to methylated metabolite ([3]; brain, mice, after 7,8-DHF p.o. 50 mg/kg): approximately 30 fold | Cmax ([3]; male, CD-1, mouse, brain, po, 50 mg/kg): 70 ng/mL | AUC(0-inf) [3, 17]: 125 ng·h/mL | AUC(0-t) [3, 17]: 108 ng·h/mL | Cmax [3, 17]: 70 ng/mL | Tmax [3, 17]: 0.167 h | half-life [3, 15]: ~2.23 h | brain concentration at 6 h [3, 16]: below the quantitative limit | penetration of the brain-blood barrier ([3]; mice, oral dosing of 50 mg/kg 7,8-DHF): can penetrate the brain-blood barrier
Molecule: O=c1cc(-c2ccccc2)oc2c(O)c(O)ccc12 [7,8-DHF, 7,8-Dihydroxyflavone]
latency of immobility (mice [10]; acute injection): has no effect on the latency of immobility | immobility in FST (mice [10]; chronic treatment): robustly decreased the immobility in FST after chronic treatment | immobility in FST (mice [10]; subchronic intraperitoneal injection): significantly decreases immobility in FST | p-Akt versus control in entacapone-treated and tolcapone-treated groups (ELISA) (Akt): no significant changes | concentration at which TrkB phosphorylation was prominent (TrkB receptor [11]): 100 nmol/L | neurogenesis in the dentate gyrus (dentate gyrus [12]): enhances neurogenesis in the dentate gyrus | TrkB activation in mouse brain (TrkB [13]): evidently activates the TrkB receptor in mouse brain | TrkB activation in mouse brain (p-TrkB Y816) (TrkB [1]): clearly activated the TrkB receptor compared to vehicle control; also recorded: obviously activated TrkB compared to vehicle control | toxicity [14]: reveals no demonstrable toxicity

Molecule: CN(C)c1ccc(-c2cc(=O)c3ccc(O)c(O)c3o2)cc1 [4′-DMA-7,8-DHF, 4′-dimethylamino-7,8-DHF]
immobility in FST (mice [10]; chronic treatment): robustly decreased the immobility in FST after chronic treatment | Comment (Caco-2 permeability) (Caco-2): poor recovery A to B | Mean A→B Papp (Caco-2): 0.9 10^−6 cm•s^−1 | Mean B→A Papp (Caco-2): 3.1 10^−6 cm•s^−1 | Efflux ratio (Caco-2; >2 indicates significant efflux activity): 3.6 | TrkB activation in primary neurons (p-TrkB Y816) (TrkB receptor [5]): more robust TrkB agonistic activity than 7,8-DHF; also recorded: activated TrkB receptor signaling pathways in primary neurons | Akt activation in mouse brain (p-Akt ELISA) (Akt; 1 mg/kg oral, 2 h): potently activated Akt | p-Akt versus control in entacapone-treated and tolcapone-treated groups (ELISA) (Akt): no significant changes | TrkB activation in mouse brain (TrkB [13]): evidently activates the TrkB receptor in mouse brain | TrkB activation in mouse brain (p-TrkB Y816) (TrkB [1]): obviously activated TrkB compared to vehicle control

half-life [3, 15]: 2.47 h | earliest observation in brain [3, 16]: 3 min
Molecule: COc1c(O)ccc2c(=O)cc(-c3ccccc3)oc12 [8-methoxy-metabolite, 7-hydroxy-8-methoxyflavone]

Molecule: O=c1cc(-c2ccccc2)oc2cc(O)cc(O)c12 [5,7-dihydroxyflavone]
TrkB agonistic effect (TrkB receptor [9]): but not 5,6-dihydroxyflavone or 5,7-dihydroxyflavone possess a TrkB agonistic effect

Comment (Caco-2 permeability) (Caco-2): low permeability, efflux | Papp A→B at 2 h, 10 μmol/l [8]: 0.3 ×10⁻⁶ cm/s | Papp B→A at 2 h, 10 μmol/l [8]: 2.9 ×10⁻⁶ cm/s | efflux ratio at 2 h, 10 μmol/l [8]: 10.9
Molecule: CNC(=C[N+](=O)[O-])NCCSCc1ccc(CN(C)C)o1 [Ranitidine, reference compound]

Molecule: O=c1cc(-c2cccc(O)c2)oc2cc(O)c(O)cc12 [6,7,3′-trihydroxyflavone]
TrkB agonistic effect (TrkB receptor [9]): possess a TrkB agonistic effect

concentration eliciting TrkB activation (TrkB receptor [5]; titration assay in primary neurons): 1 to 30 nmol/L
B1: BDNF: Brain-derived neurotrophic factor, member of the neurotrophin family; positive control from Roche (protein, UniProt P23560 19-247, looked up)
Neurotrophic factor BDNF …: APMKEANIRGQGGLAYPGVRTHGTLESVNGPKAGSRGLTSLADTFEHVIEELLDEDQKVRPNEENNKDADLYTSRVMLSSQVPLEPPLLFLLEEYKNYLDAANMSMRVRRHSDPARRGELSVCDSISEWVTAADKKTAVDMSGGTVTVLEKVPVSKGQLKQYFYETKCNPMGYTKEGCRGIDKRHWNSQCRTTQSYVRALTMDSKKRIGWRFIRIDTSCVCTLTIKRGR
